Test results as given in US20200297775A1, “ENHANCED DIRECT CARDIAC REPROGRAMMING” (The J. David Gladstone Institutes, A Testamentary Trust …, priority 2016, published 2020).

B1: WNT11: activates the non-canonical WNT pathway (protein, UniProt O96014 25-354, looked up)
Protein Wnt-11: IKWLALSKTPSALALNQTQHCKQLEGLVSAQVQLCRSNLELMHTVVHAAREVMKACRRAFADMRWNCSSIELAPNYLLDLERGTRESAFVYALSAAAISHAIARACTSGDLPGCSCGPVPGEPPGPGNRWGGCADNLSYGLLMGAKFSDAPMKVKKTGSQANKLMRLHNSEVGRQALRASLEMKCKCHGVSGSCSIRTCWKGLQELQDVAADLKTRYLSATKVVHRPMGTRKHLVPKDLDIRPVKDSELVYLQSSPDFCMKNEKVGSHGTQDRQCNKTSNGSDSCDLMCCGRGYNPYTDRVVERCHCKYHWCCYVTCRRCERTVERYVCK
B2: BMP4: regulates other aspects of TGF-β signaling (protein, UniProt P12644 293-408, looked up)
Bone morphogenetic protein 4: SPKHHSQRARKKNKNCRRHSLYVDFSDVGWNDWIVAPPGYQAFYCHGDCPFPLADHLNSTNHAIVQTLVNSVNSSIPKACCVPTELSAISMLYLDEYDKVVLKNYQEMVVEGCGCR
B3: WNT3a: activates canonical WNT signaling (protein, UniProt P56704 19-352, looked up)
Protein Wnt-3a: SYPIWWSLAVGPQYSSLGSQPILCASIPGLVPKQLRFCRNYVEIMPSVAEGIKIGIQECQHQFRGRRWNCTTVHDSLAIFGPVLDKATRESAFVHAIASAGVAFAVTRSCAEGTAAICGCSSRHQGSPGKGWKWGGCSEDIEFGGMVSREFADARENRPDARSAMNRHNNEAGRQAIASHMHLKCKCHGLSGSCEVKTCWWSQPDFRAIGDFLKDKYDSASEMVVEKHRESRGWVETLRPRYTYFKVPTERDLVYYEASPNFCEPNPETGSFGTRDRTCNVSSHGIDGCDLLCCGRGHNARAERRREKCRCVFHWCCYVSCQECTRVYDVHTCK

Experiments:
[1] = test system: Thy1+ neonatal cardiac fibroblasts from α-MHC-GFP transgenic mice; assay: Drug screening of GMT cardiac reprogramming, α-MHC-GFP reporter, high-content imaging; format: cell-based, mouse; conditions: compounds added day 1, read-out 2 weeks
Description: To identify biological pathways that could be manipulated to improve cardiac reprogramming, a chemical biology approach involving an unbiased small molecule library screen was used. Cardiac reprogramming was induced with the recently described polycistronic GMT retrovirus Mef2c-P2A-Gata4-T2A-Tbx5 to ensure that each of the three transcription factors are optimally expressed, as described in detail in Wang et al. (2015) Circ. Res. 116:237-244.
Briefly, mouse cardiac fibroblasts (CF) were isolated from PO-P4 αMHC-GFP transgenic neonates using the migration method as previously described. Burridge et al. (2012) Cell Stem Cell 10:16-28; Ieda et al. (2010) Cell 142:375-386. Hearts were isolated, minced, and onto gelatin-coated plates and incubated in fibroblast explant media (20% FBS in IMOM) for one week at 37° C. The tissue was washed with 2×PBS, digested in 0.05% Trypsin for 5 minutes, and resuspended in fibroblast explant media. Tissues were filtered through a […] filter and pelleted. Pelleted cells were stained for 20 minutes with Thy-1-APC (anti-mouse/rat CD90.1 thy-1.1) (Ebioscience, San Diego, Calif., USA) and washed 2× with PBS as previously described. Ieda et al. (2010) Cell 142:375-386. Cells were sorted for APC^+ cells by fluorescence activated cell sorting (FACS) and plated onto 10 cm gelatin-coated plates and used fresh for all studies without freezing.
Direct conversion of Thy1^+ CFs to iCMs was completed as previously described in Ieda et al. (2010) Cell 142:375-386. Briefly, pMXs-Gata4, pMXs-Mef2c, pMXs-Tbx5, polycistronic pMXs-Mef2c-Gata4-Tbx5 (GMT polycistronic) or pMXs-dsRed were constructed as previously described. Ieda et al. (2010) Cell 142:375-386; Wang, L., et al. (2015) Circ Res 116, 237-244 (2015). Retroviral vectors were packaged using Fugene HD (Roche) and delivered in OptiMEM (10 μg) to 15-cm plates containing ˜80% confluent PlatE cells in fibroblast explant media, as previously described. Qian, L., et al. (2012) Nature 485, 593-59. Viral supernatant was collected 48 hours post-transfection and used to infect cardiac fibroblasts with the addition of 0.6 μg/ml polybrene (Chemicon) and added to cardiac fibroblasts at day −1. After 24 hours, the culture medium was replaced with cardiomyocyte culture medium (iCM medium (Qian, L., et al. (2013) Nature Protocols 8: 1204-1215)) at day 0, and replaced every 3-4 days. Three separate Gata4, Mef2c, and Tbx5 retroviruses were used in the initial drug screening and the in vivo experiments; however for further in vitro experiments following the initial screening the GMT polycistronic retrovirus was used.
For drug screening, Thy1^+ neonatal cardiac fibroblasts from α-MHC-GFP transgenic mice were plated in 384-well plates at a density of 2000 cells/well. Cells were reprogrammed with the GMT retrovirus as described above. At day 1 of reprogramming, the virus was replaced with iCM medium and the compounds were added to the wells using a Biomek liquid-handling robotic station to achieve a 1:1000 dilution of the drug-library concentration. Libraries of 5500 toxicologically tested compounds (e.g., LOPAC, TOCRIS, LONZA, and […]) were screened. At day 14 of reprogramming, the plates were fixed and stained for GFP and Troponin T as described under immunocytochemistry and imaged using high-throughput, high-content imaging with an INCELL system. Data were analyzed using the INCELL image-analysis package.
For immunocytochemical analysis and quantification, samples were fixed using 4% paraformaldehyde (PFA), washed twice in PBS containing 0.1% Triton X-100 (PBST), and blocked with Power Block Universal Blocking Reagent (Biogenex, # HK085-5K) for 15 minutes at room temperature as previously described. Qian et al. (2013) Nature protocols 8:1204-1215. Samples were incubated in a mixture containing primary antibodies diluted in PBST and blocking buffer (1:1) and incubated at 4° C. overnight.

[2] = test system: cardiac fibroblasts; assay: Activation or knockdown of TGF-β/WNT signaling during GMT reprogramming; format: cell-based, mouse; conditions: added during GMT reprogramming
Description: It was also observed that activating TGF-β or canonical WNT signaling reversed the reprogramming efficiency gains induced by SB431542 or XAV939, respectively. […] Moreover, overexpression of constitutively active SMAD2 or SMAD3 (TGF-β signaling effectors) abolished cardiac reprogramming enhancement by SB431542 (FIG. 15). […] An ˜80% reduction of ALK4 or ALK5 (FIG. 16) enhanced direct cardiac reprogramming, similar to SB431542 (FIG. 16). […] Thus, SB431542 and XAV939 enhance cardiac reprogramming by inhibiting TGF-β and canonical WNT signaling.

[3] = test system: mouse cardiac fibroblasts; assay: Appearance of beating cells, Troponin T staining and sarcomere organization in iCMs; format: cell-based; conditions: after GMT infection
Description: For immunocytochemical analysis and quantification, samples were fixed using 4% paraformaldehyde (PFA), washed twice in PBS containing 0.1% Triton X-100 (PBST), and blocked with Power Block Universal Blocking Reagent (Biogenex, # HK085-5K) for 15 minutes at room temperature as previously described. Qian et al. (2013) Nature protocols 8:1204-1215. Samples were incubated in a mixture containing primary antibodies diluted in PBST and blocking buffer (1:1) and incubated at 4° C. overnight. The following primary antibodies were used: troponin T, cardiac isoform Ab-1, mouse monoclonal antibody (Thermo Scientific # MS-295-PO, 1:200), monoclonal anti-α-actinin sarcomeric antibody (Sigma Aldrich # A7811, 1/200), and anti-GFP (Thermo Scientific # A11120, 1:200). Samples were washed twice with PBST for 15 minutes each at room temperature and then incubated in a mixture containing secondary antibodies diluted in PBST and blocking buffer (1:1) at room temperature for 1 hour. Samples were washed three times with PBST for 15 minutes each at room temperature and visualized. Stained cells were quantified with ImageJ Imaging Analysis Software. The standard error mean was calculated for all comparisons; p<0.05 was considered statistically significant. […]

[4] = test system: mouse cardiac fibroblasts; assay: GMT reprogramming efficiency, α-MHC-GFP+ iCMs (dose, timing, FACS); format: cell-based
[5] = test system: SMAD2/3; assay: Western blot, phosphorylation of SMAD2/3; format: cell-based
Description: (§1) Next, the mechanisms by which the small molecules regulate TGF-β and WNT signaling were investigated. Proteins from cell lysates containing 20 μg of protein were separated by SDS-PAGE and electrophoretically transferred onto polyvinylidene difluoride membranes (BioRad). Membranes were then washed in PBS, treated with blocking buffer (Li-cor), and then incubated with primary antibodies at 4° C. overnight. The following primary antibodies were used: anti-GAPDH antibody loading control (Abcam # ab9484, 0.5 μg/ml), anti-Active β-Catenin antibody (Millipore #05-665, 1:1000), anti-T-Antigen (Abcam # ab16879, 1:1000), and anti-phospho-Smad2/3 (Cell Signaling #8685S, 1:1000). Membranes were washed in PBS and incubated with the appropriate secondary antibodies (Li-Cor, IRDye […]; IRDye 800CW, 1:10,000) for 1 hour at room temperature. Membranes were washed and visualized with an Odyssey Fc Dual-mode Imaging System.

[6] = test system: cardiac and fibroblast genes; assay: qRT-PCR panel of cardiac and fibroblast genes during GMT reprogramming; format: cell-based, mouse; conditions: 2 weeks of reprogramming
Description: To identify which of the WNT or TGF-β inhibitor compounds most effectively improve reprogramming quality, qRT-PCR was performed for a panel of cardiac and fibroblast genes. Briefly, total RNA was isolated with a commercial kit (Direct-Zol RNA Mini-prep, Zymo Research). Reverse transcription was carried out using a mixture of oligo(dT) and random hexamer primers (SuperScript III First-Strand Synthesis SuperMix for qRT-PCR, ThermoFisher Scientific). Real-time PCR Analysis was conducted with the 7900HT FAST real-time PCR detection system (Applied Biosystems). For high-throughput, real-time PCR analysis, samples were analyzed with the 96.96 Dynamic Array IFC on the Biomark HD system (Fluidigm).

[7] = test system: active β catenin; assay: Western blot, active β catenin; format: cell-based
Description: as §1

| Molecule | hit in drug screen (Z score over 5) [1] | effect on reprogramming enhanced by SB431542 and XAV939 [2] | further results |
| --- | --- | --- | --- |
| c1ccc2c(-c3cnn4cc(-c5ccc(N6CCNCC6)cc5)cnc34)ccnc2c1 [LDN-193189] | top hits | – | – |
| activin | – | – | effect on reprogramming enhanced by SB431542 [2]: did not have a significant effect |
| TGF-β1 ligand: excess TGF-β1 ligand added during reprogramming | – | partially inhibited the combined effect | effect on reprogramming enhanced by SB431542 [2]: reversed the effect of SB431542 |
| O=C(Nc1cccc2cccnc12)c1ccc(N2C(=O)[C@@H]3[C@H](C2=O)[C@@H]2C=C[C@H]3C2)cc1 [IWR1] | top hits | – | – |
| NC(=O)c1ccc(-c2nc(-c3ccc4c(c3)OCO4)c(-c3ccccn3)[nH]2)cc1 [SB431542] | top hits | – | appearance of beating cells [3]: 3 weeks; timing of addition for reprogramming efficiency ([4]; GMT, SB431542 2.6 μM): most effective if added at day 1; phosphorylation of SMAD2/3 (indicator of TGF-β activation) [5]: significantly reduced; downregulating fibroblast gene expression ([6]; among TGF-β inhibitors): most efficient of the TGF-β inhibitors |
| CN1C(C(=O)Nc2ccccn2)=C(O)c2ccccc2S1(=O)=O [piroxicam] | top hits | – | – |
| O=c1c(O)c(-c2cc(O)c(O)c(O)c2)oc2cc(O)cc(O)c12 [myricetin] | top hits | – | – |
| Oc1nc(-c2ccc(C(F)(F)F)cc2)nc2c1CSCC2 [XAV939] | top hits | – | most effective dose ([4]; GMT reprogramming efficiency): 5 µM; effect of time of addition on enhancement ([4]; GMT, XAV939): same enhancement effect when added at any time during the first 8 days; expression of active β catenin (indicator of WNT activation) [7]: significantly reduced; activating cardiac gene expression ([6]; among WNT inhibitors): most efficient of the WNT inhibitors |
| NC(=O)c1ccc(-c2nc(-c3ccc4c(c3)OCCO4)c(-c3ccccn3)[nH]2)cc1 [D4476] | top hits | – | – |
| Cc1c[nH]c(-c2cnc(NCCNc3ccc(C#N)cn3)nc2-c2ccc(Cl)cc2Cl)n1 [CHIR99021] | – | reversed the combined effect | – |
| B1 | – | did not have a significant effect | – |
| B2 | – | – | effect on reprogramming enhanced by SB431542 [2]: did not significantly affect cardiac reprogramming |
| B3 | – | partially blocked the effects | – |
